Laboratory results as given in ChEMBL document CHEMBL4028904, “Discovery of a Novel Series of Tankyrase Inhibitors by a Hybridization Approach” (J Med Chem, 2017).

How the values were obtained:
[1] = biological target: T1, Poly [ADP-ribose] polymerase tankyrase-2 (Homo sapiens, UniProt Q9H2K2); experiment: Inhibition of TNKS2 (unknown origin) expressed in HEK293 cells assessed as inhibition of Wnt3a-induced Wnt/beta-catenin signaling after 24 hrs by luciferase reporter gene assay; type: cell-based
T1 sequence (Q9H2K2 whole entry): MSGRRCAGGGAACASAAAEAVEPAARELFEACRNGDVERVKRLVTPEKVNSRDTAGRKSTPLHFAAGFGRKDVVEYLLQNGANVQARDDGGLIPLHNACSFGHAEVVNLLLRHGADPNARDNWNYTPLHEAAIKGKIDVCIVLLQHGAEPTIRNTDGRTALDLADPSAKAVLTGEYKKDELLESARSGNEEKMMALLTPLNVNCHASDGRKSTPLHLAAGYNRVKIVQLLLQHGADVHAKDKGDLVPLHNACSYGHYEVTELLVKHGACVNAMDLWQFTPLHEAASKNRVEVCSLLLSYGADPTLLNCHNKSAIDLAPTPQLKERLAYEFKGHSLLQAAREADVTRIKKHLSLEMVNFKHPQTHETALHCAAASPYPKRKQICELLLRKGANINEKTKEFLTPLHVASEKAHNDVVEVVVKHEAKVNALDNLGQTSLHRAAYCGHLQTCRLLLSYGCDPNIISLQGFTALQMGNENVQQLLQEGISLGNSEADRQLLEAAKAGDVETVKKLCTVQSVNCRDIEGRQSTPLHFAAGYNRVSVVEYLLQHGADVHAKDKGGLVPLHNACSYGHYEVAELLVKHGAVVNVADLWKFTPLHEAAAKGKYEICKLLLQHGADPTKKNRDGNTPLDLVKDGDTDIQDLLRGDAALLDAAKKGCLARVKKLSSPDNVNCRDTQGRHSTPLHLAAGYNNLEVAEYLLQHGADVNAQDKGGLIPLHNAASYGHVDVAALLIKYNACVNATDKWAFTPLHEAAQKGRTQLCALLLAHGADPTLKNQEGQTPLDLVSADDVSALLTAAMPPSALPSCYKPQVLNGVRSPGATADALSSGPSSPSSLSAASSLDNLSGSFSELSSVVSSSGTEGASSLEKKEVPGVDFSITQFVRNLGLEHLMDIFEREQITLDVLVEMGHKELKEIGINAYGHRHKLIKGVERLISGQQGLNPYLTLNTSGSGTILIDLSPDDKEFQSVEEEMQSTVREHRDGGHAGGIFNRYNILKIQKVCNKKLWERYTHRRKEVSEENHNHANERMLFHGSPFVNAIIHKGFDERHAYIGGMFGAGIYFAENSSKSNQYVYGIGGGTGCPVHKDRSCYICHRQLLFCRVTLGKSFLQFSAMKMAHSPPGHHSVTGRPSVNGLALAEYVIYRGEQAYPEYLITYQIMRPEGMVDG

[2] = biological target: T1, Poly [ADP-ribose] polymerase tankyrase-2; experiment: Inhibition of TNKS2 (unknown origin) transfected in human SW480 cells assessed as inhibition of Wnt3a-induced Wnt/beta-catenin signaling after 48 hrs by ST-luciferase reporter gene assay; type: cell-based
[3] = biological target: T1, Poly [ADP-ribose] polymerase tankyrase-2; experiment: Inhibition of human TNKS2 (873 to 1162 residues) assessed as reduction in NAD+ consumption by fluorescence assay

O=c1[nH]c2ccccc2n1[C@H]1CC[C@H](c2nnc(-c3ccncn3)n2-c2ccccc2Cl)CC1
IC50 [1]: 1060 nM | IC50 [2]: 1800 nM | IC50 [3]: 430 nM
